Experimental data taken from patent publication US5726159A, “Antithrombotic agents” (Eli Lilly and Company, priority 1995, dated 1998).
Counter-ions that a name gives are not always drawn.

What was measured:
Format in all cases: biochemical
Conditions in all cases: concentration required to double the clotting time
Human plasma [1] = assay: Human plasma anticoagulation, thrombin time (TT)
Description: (§1) Dog plasma and rat plasma is obtained from conscious mixed-breed hounds (either sex, Hazelton-LRE, Kalamazoo, Mich., U.S.A.) or from anesthetized male Sprague-Dawley rats (Harlan Sprague-Dawley, Inc., Indianapolis, Ind., U.S.A.) by venipuncture into 3.8 percent citrate. Fibrinogen is prepared from in-date ACD human blood as the fraction I-2 according to previous procedures and specifications. […] Human fibrinogen is also purchased as 98 percent pure/plasmin free from American Diagnostica, Greenwich, Conn. Coagulation reagents ACTIN, Thromboplastin, and Human plasma are from Baxter Healthcare Corp., Dade Division, Miami, Fla. Bovine thrombin from Parke-Davis ([…], Mich.) is used for coagulation assays in plasma.
(§2) Coagulation assay procedures are as previously described. […] A CoAScreener coagulation instrument (American LABor, Inc.) is used for all coagulation assay measurements. The prothrombin time (PT) is measured by adding 0.05 mL saline and 0.05 mL Thromboplastin-C reagent to 0.05 mL test plasma. The activated partial thromboplastin time (APTT) is measured by incubation of 0.05 mL test plasma with 0.05 mL Actin reagent for 120 seconds followed by 0.05 mL CaCl2 (0.02M). The thrombin time (TT) is measured by adding 0.05 mL saline and 0.05 mL thrombin (10 NIH units/mL) to 0.05 mL test plasma. The compounds of Formula I are added to human or animal plasma over a wide range of concentrations to determine prolongation effects on the APTT, PT, and TT assays. Linear extrapolations are performed to estimate the concentrations required to double the clotting time for each assay.

Human plasma [2] = assay: Human plasma anticoagulation, prothrombin time (PT)
Description: as §1, §2

Human plasma [3] = assay: Human plasma anticoagulation, activated partial thromboplastin time (APTT)
Description: as §1, §2

| Compound | 2x Clotting time TT (Human plasma [1]) | 2x Clotting time PT (Human plasma [2]) | 2x Clotting time APTT (Human plasma [3]) |
| --- | --- | --- | --- |
| CCOC(=O)N[C@H](Cc1ccccc1)C(=O)N1CCC[C@H]1C(=O)NCCCCNC(=N)N [Example 3, EtOCO-D-Phe-Pro-Agm.HCl] | 590 ng/mL |  |  |
| Nc1ccc(CNC(=O)[C@@H]2CCCN2C(=O)[C@@H](CC2CCCCC2)NCC(=O)O)cc1F [Example 77, HO2 CCH2 -D-Cha-Pro-4-NHCH2 -2-F-aniline.HCl] | 53 ng/mL | 890 ng/mL | 1,600 ng/mL |
| N=C(N)c1cccc(CNC(=O)[C@@H]2CCCN2C(=O)[C@H](N)Cc2ccccc2)c1 [Example 16, D-Phe-Pro-m-NHCH2 C6 H4 C(NH)NH2.0.75HCl] | 650 ng/mL | 8,500 ng/mL | 8,600 ng/mL |
| Nc1ccc(CNC(=O)[C@@H]2CCCN2C(=O)[C@H](N)Cc2ccccc2)cc1 [Example 13, D-Phe-Pro-p-NHCH2 C6 H4 NH2.HCl] | 660 ng/mL |  |  |
| N=C(N)c1cccc(CCCNC(=O)[C@@H]2CCCN2C(=O)[C@@H]2NCC[C@@H]3CCCC[C@@H]32)c1 [Example 33, 1-Piq-Pro-m-NHCH2 CH2 CH2 -C6 H4 C(=NH)NH2.HCl] | 18,900 ng/mL | 70,900 ng/mL | 59,300 ng/mL |
| O=C(O)CN[C@H](CC1CCCCC1)C(=O)N1CCC[C@H]1C(=O)NCCC1=CCNCC1 [Example 59, HO2 CCH2 -D-Cha-Pro-4-NHCH2 CH2 -3,4-dehydro-piperidine.HCl] | 420 ng/mL | 7,000 ng/mL | 5,500 ng/mL |
| N=C(N)c1ccc(CNC(=O)[C@@H]2CCCN2C(=O)[C@H]2C[C@H]3CCCC[C@H]3CN2)cc1 [Example 19, D-3-Piq-Pro-p-NHCH2 C6 H4 C(NH)NH2.3HCl] | 58 ng/mL | 540 ng/mL | 300 ng/mL |
| CCC(CC)C(=O)N[C@@H](CCS(C)(=O)=O)C(=O)N1CCC[C@H]1C(=O)NCc1ccc(C(=N)N)cc1 [Example 91, (C2 H5)2 CHCO-Met(O2)-Pro-p-NHCH2 C6 H4 C(NH)NH2.HCl] | 63 ng/mL | 3,500 ng/mL | 3,000 ng/mL |
| N=C(N)C1CCC(CNC(=O)[C@@H]2CCCN2C(=O)[C@@H](CC2CCCCC2)NCC(=O)O)NC1 (stereo partly drawn) [Example 67, HO2 CCH2 -D-Cha-Pro-2-NHCH2 -5-amidinopiperidine.HCl] | 34. ng/mL | 1,300 ng/mL | 1,800 ng/mL |
| N=C(N)c1ccc(CCNC(=O)[C@@H]2CCCN2C(=O)[C@@H]2NCC[C@@H]3CCCC[C@@H]32)cc1 [Example 28, 1-Piq-Pro-p-NHCH2 CH2 -C6 H4 C(=NH)NH2.2HCl] | 520 ng/mL | 8,300 ng/mL | 8,100 ng/mL |
| N=C(N)Nc1ccc(CNC(=O)[C@@H]2CCCN2C(=O)[C@@H]2NCC[C@@H]3CCCC[C@@H]32)cc1 [Example 38, D-1-Piq-Pro-p-NHCH2 C6 H4 NHC(NH)NH2.2HCl] | 540 ng/mL | 11,100 ng/mL | 6,100 ng/mL |
| Nc1ccc(CCNC(=O)[C@@H]2CCCN2C(=O)[C@H](N)Cc2ccccc2)cc1 [Example 14, D-Phe-Pro-p-NHCH2 CH2 C6 H4 NH2.HCl] | 21,000 ng/mL |  |  |
| CCS(=O)(=O)N[C@H](Cc1ccccc1)C(=O)N1CCC[C@H]1C(=O)NCc1cccc(NC(=N)N)c1 [Example 36, EtSO2 -D-Phe-Pro-m-NHCH2 C6 H4 NHC(NH)NH2.HCl] | 7,700 ng/mL | > 91,000 ng/mL | > 91,000 ng/mL |
| CCS(=O)(=O)N[C@H](Cc1ccccc1)C(=O)N1CCC[C@H]1C(=O)NCCCc1cccc(C(=N)N)c1 [Example 31, EtSO2 -D-Phe-Pro-m-NHCH2 CH2 CH2 -C6 H4 C(=NH)NH2.HCl] | 10,800 ng/mL | 30,000 ng/mL | 34,500 ng/mL |
| Nc1ccc(CCNC(=O)[C@@H]2CCCN2C(=O)[C@@H](CC2CCCCC2)NCC(=O)O)cc1 [Example 63, HO2 CCH2 -D-Cha-Pro-4-NHCH2 CH2 C6 H4 NH2.HCl] | 680 ng/mL |  |  |
| N=C(N)C1=CNC(CNC(=O)[C@@H]2CCCN2C(=O)[C@@H](CC2CCCCC2)NCC(=O)O)CC1 (stereo partly drawn) [Example 68, HO2 CCH2 -D-Cha-Pro-2-NHCH2 -5-amidino-5,6-dehydro-piperidine.HCl] | 4. ng/mL | 190 ng/mL | 49 ng/mL |
| N=C(N)Nc1ccc(CCNC(=O)[C@@H]2CCCN2C(=O)[C@@H]2NCC[C@@H]3CCCC[C@@H]32)cc1 [Example 39, D-1-Piq-Pro-p-NHCH2 CH2 C6 H4 NHC(NH)NH2.2HCl] | 5,300 ng/mL | 78,600 ng/mL | 69,200 ng/mL |
| CCS(=O)(=O)N[C@H](CC1CCCCC1)C(=O)N1CCC[C@H]1C(=O)NCc1ccc(CN)cc1 [Example 81, EtSO2 -D-Cha-Pro-4-NHCH2 C6 H4 CH2 NH2.HCl] | 110 ng/mL | 2,700 ng/mL | 1,500 ng/mL |
| D-Phe-Pro-p-NHCH2 C6 H4 C(NH)NH2.HCl [Example 15] | 9 ng/mL |  | 89 ng/mL |
| N=C(N)NCc1ccc(CNC(=O)[C@@H]2CCCN2C(=O)[C@H](N)Cc2ccccc2)cc1 [Example 9, D-Phe-Pro-p-NHCH2 -C6 H4 CH2 NHC(NH)NH2.2TFA] | > 91,000 ng/mL |  |  |
| CCS(=O)(=O)N[C@H](CC1CCCCC1)C(=O)N1CCC[C@H]1C(=O)NCCCCNC(=N)N [Example 2, EtSO2 -D-Cha-Pro-Agm.HCl] | 170 ng/mL |  |  |
| N=C(N)NCCCCCCNC(=O)[C@@H]1CCCN1C(=O)[C@H](N)Cc1ccccc1 [Example 5, D-Phe-Pro-NH(CH2)6 NHC(NH)NH2.HCl] | 30,000 ng/mL |  |  |
| NCc1cccc(CNC(=O)[C@@H]2CCCN2C(=O)[C@H](N)Cc2ccccc2)c1 [Example 11, D-Phe-Pro-m-NHCH2 C6 H4 CH2 NH2.HCl] | 8,800 ng/mL |  |  |
| NCc1ccc(CNC(=O)[C@@H]2CCCN2C(=O)[C@H](N)Cc2ccccc2)cc1 [Example 10, D-Phe-Pro-p-NHCH2 C6 H4 CH2 NH2.HCl] | 420 ng/mL |  |  |
| N=C(N)NC/C=C/CNC(=O)[C@@H]1CCCN1C(=O)[C@H](N)Cc1ccccc1 (relative stereo) [Example 8, D-Phe-Pro-NHCH2 -trans-CH=CHCH2 NHC(NH)NH2.HCl] | 130 ng/mL |  |  |
| Nc1ccc(CNC(=O)[C@@H]2CCCN2C(=O)[C@@H](CC2CCCCC2)NCC(=O)O)cc1 [Example 62, HO2 CCH2 -D-Cha-Pro-4-NHCH2 C6 H4 NH2.HCl] | 54 ng/mL |  |  |
| NC[C@H]1CC[C@H](CNC(=O)[C@@H]2CCCN2C(=O)[C@H](N)Cc2ccccc2)CC1 (relative stereo) [Example 12, D-Phe-Pro-NHCH2 -trans-4-(aminomethyl)cyclohexane.HCl] | 1,700 ng/mL |  |  |
| N=C(N)NCCCNC(=O)[C@@H]1CCCN1C(=O)[C@H](N)Cc1ccccc1 [Example 7, D-Phe-Pro-NH(CH2)3 NHC(NH)NH2.HCl] | 490 ng/mL |  |  |
